{"source": "patent US20210165001A1", "about": "“COMPOSITIONS AND METHODS FOR DETECTION AND IMAGING OF AMYLOID FIBRILS, AMYLOID PLAQUES, RNA, AND NUCLEOLI” (The University of Hong Kong, priority 2018, published 2021)", "format_in_all_cases": "biochemical", "key": {"[1]": {"target": "T1, insulin amyloid fibrillation (Homo sapiens, UniProt P01308)", "T1 sequence (P01308 25-54 limits assumed)": "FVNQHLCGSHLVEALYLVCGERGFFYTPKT", "T1 sequence (P01308 90-110 limits assumed)": "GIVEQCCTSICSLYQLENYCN", "assay": "effect of L-ascorbic acid on insulin amyloid fibrillation, complex 1-Pt luminescence assay", "settings": "for kapp of insulin amyloid fibrillation / tlag of insulin amyloid fibrillation: detected by complex 1-Pt", "procedure": "(§1) In kinetics, insulin amyloid fibrillation can be modeled by a sigmoid function with three different phases: lag phase, log phase, and stationary phase. The values of kapp and tlag for insulin amyloid fibrillation were determined using the sigmoid function which was based on the equation shown below (see similar examples of data fitting in Nielsen et al., Biochemistry, 40:6036-6046 (2001); Hwang et al., J. Biol. Chem., 285:41701-41711 (2010); and Donabedian et al., ACS Chem. Neurosci., 6:1526-1535 (2015)).\n(§2) where y is the absorbance, emission intensity, or RLS intensity; A1 is the absorbance, emission intensity, or RLS intensity before amyloid fibrillation; A2 is the absorbance, emission intensity, or RLS intensity after amyloid fibrillation; x is the incubation time; xo is the incubation time at which the absorbance, emission intensity, or RLS intensity is at half maximum; and dx is the time constant. Accordingly, the apparent rate constant, kapp, is equivalent to 1/dx, and the lag time, tlag, is given by xo−2dx.\n(§3) Insulin was dissolved at 1.0 mg mL^−1 in an acidic buffer ([NaCl]=137 mM, [KCl]=2.7 mM, pH=2.0) in the presence of different amounts (0, 10, 20, 50, 70, 100 mM) of L-ascorbic acid. The solution was incubated at 65° C. and stirred at 300 rpm. Aliquots were withdrawn at a desired time interval. Insulin samples (10 μM) with different incubation times were added to a solution of thioflavin T (10 μM) in a PBS buffer (10.0 mM, pH=7.4). The emission spectra were recorded at 25° C. at an excitation wavelength of 440 nm. Similarly, insulin samples (10 μM) with different incubation times were added to a solution of complex 1-Pt (50 μM) in a PBS buffer (10.0 mM, pH=7.4, 10% DMSO). The emission spectra were recorded at 25° C. at an excitation wavelength of 400 nm. The values of kapp and tlag for insulin amyloid fibrillation were determined from fitting using the sigmoid equation listed above."}, "[2]": {"target": "T1, insulin amyloid fibrillation", "assay": "effect of L-ascorbic acid on insulin amyloid fibrillation, thioflavin T fluorescence assay", "settings": "detected by thioflavin T", "procedure": "as §1, §2, §3"}, "[3]": {"target": "T1, insulin amyloid fibrillation", "assay": "kinetics of insulin amyloid fibrillation reported by probe (sigmoid fit)", "settings": "method: Emission; insulin 10 μM; thioflavin T 10 μM (490 nm) or complex 1-Pt 50 μM (650 nm); no L-ascorbic acid", "procedure": "To induce amyloid fibrillation, insulin was dissolved at 1.0 mg mL^−1 in an acidic buffer ([NaCl]=137 mM, [KCl]=2.7 mM, pH=2.0). The solution was incubated at 65° C. and stirred at 300 rpm. Insulin samples with different incubation times were added to a solution of thioflavin T in a PBS buffer (10.0 mM, pH=7.4). The final concentrations of insulin and thioflavin T were both 10 μM. The emission spectra were recorded at 25° C. at an excitation wavelength of 440 nm. Similarly, insulin samples with different incubation times were added to a solution of complex 1-Pt in a PBS buffer (10.0 mM, pH=7.4, 10% DMSO). The final concentrations of insulin and complex 1-Pt were 10 μM and 50 μM, respectively. UV-Vis absorption spectra, emission spectra, and RLS spectra were recorded at 25° C.; the emission spectra were recorded at an excitation wavelength of 400 nm.\nas §1, with “(2015)). […]” for “(2015)).”"}}}
{"molecule": "O=C1O[C@H]([C@@H](O)CO)C(O)=C1O", "note": "[L-ascorbic acid]", "values": [{"measurement": "inhibition effect on amyloid fibrillation", "setting": "[1]; L-ascorbic acid 0-100 mM, thioflavin T and complex 1-Pt assays", "result": "concentration dependent"}, {"measurement": "kapp of insulin amyloid fibrillation", "setting": "[1]; L-ascorbic acid 10 mM", "result": "0.18 ± 0.09", "unit": "min⁻¹"}, {"measurement": "tlag of insulin amyloid fibrillation", "setting": "[1]; L-ascorbic acid 10 mM", "result": "53.2 ± 0.2", "unit": "min"}, {"measurement": "kapp of insulin amyloid fibrillation", "setting": "[1]; L-ascorbic acid 20 mM", "result": "0.16 ± 0.08", "unit": "min⁻¹"}, {"measurement": "tlag of insulin amyloid fibrillation", "setting": "[1]; L-ascorbic acid 20 mM", "result": "59.2 ± 0.3", "unit": "min"}, {"measurement": "kapp of insulin amyloid fibrillation", "setting": "[1]; L-ascorbic acid 50 mM", "result": "0.15 ± 0.07", "unit": "min⁻¹"}, {"measurement": "tlag of insulin amyloid fibrillation", "setting": "[1]; L-ascorbic acid 50 mM", "result": "70.1 ± 0.6", "unit": "min"}, {"measurement": "kapp of insulin amyloid fibrillation", "setting": "[1]; L-ascorbic acid 70 mM", "result": "0.12 ± 0.06", "unit": "min⁻¹"}, {"measurement": "tlag of insulin amyloid fibrillation", "setting": "[1]; L-ascorbic acid 70 mM", "result": "85.6 ± 0.6", "unit": "min"}, {"measurement": "kapp of insulin amyloid fibrillation", "setting": "[2]; L-ascorbic acid 10 mM", "result": "0.19 ± 0.09", "unit": "min⁻¹"}, {"measurement": "tlag of insulin amyloid fibrillation", "setting": "[2]; L-ascorbic acid 10 mM", "result": "54.3 ± 0.2", "unit": "min"}, {"measurement": "kapp of insulin amyloid fibrillation", "setting": "[2]; L-ascorbic acid 20 mM", "result": "0.17 ± 0.08", "unit": "min⁻¹"}, {"measurement": "tlag of insulin amyloid fibrillation", "setting": "[2]; L-ascorbic acid 20 mM", "result": "57.2 ± 0.3", "unit": "min"}, {"measurement": "kapp of insulin amyloid fibrillation", "setting": "[2]; L-ascorbic acid 50 mM", "result": "0.17 ± 0.08", "unit": "min⁻¹"}, {"measurement": "tlag of insulin amyloid fibrillation", "setting": "[2]; L-ascorbic acid 50 mM", "result": "68.3 ± 0.3", "unit": "min"}, {"measurement": "kapp of insulin amyloid fibrillation", "setting": "[2]; L-ascorbic acid 70 mM", "result": "0.14 ± 0.07", "unit": "min⁻¹"}, {"measurement": "tlag of insulin amyloid fibrillation", "setting": "[2]; L-ascorbic acid 70 mM", "result": "83.0 ± 0.3", "unit": "min"}]}
{"molecule": "Cc1ccc2c(c1)sc(-c1ccc(N(C)C)cc1)[n+]2C.[Cl-]", "note": "[Thioflavin T, thioflavin T]", "values": [{"measurement": "kapp (apparent rate constant of insulin amyloid fibrillation)", "setting": "[3]", "result": "0.23 ± 0.08", "unit": "min⁻¹"}, {"measurement": "tlag (lag time of insulin amyloid fibrillation)", "setting": "[3]", "result": "54.0 ± 0.1", "unit": "min"}]}
